Literature values, collected in patent publication US10398673B2, “Mast cell stabilizers treatment for systemic disorders” (Respivant Sciences GmbH, priority 2014, dated 2019).

- oral bioavailability: less than 1%
SMILES: O=C(O)c1cc(=O)c2c(OCC(O)COc3cccc4oc(C(=O)O)cc(=O)c34)cccc2o1 [cromolyn sodium]
